Here are results for four compounds from ChEMBL document CHEMBL1201862, “PubChem BioAssay data set” (2004).

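Growth conditions: 96-well plates. Treatment: test compound, 48 hours, 5 concentrations. Analysis: linear interpolation between bracketing concentrations; unreached endpoints set to highest concentration. GI50 marks 50% less growth.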 Activity calls are given as the source filed them. No stated cut-off is given here; in the data, active = GI50 up to about 1.1 µM and inactive = higher.

Holding throughout (assay): growth of human tumour cells (NCI), 48 h
The subject of assay [1] is A549.
Assay [2] has as its system BT-549.
Assay [3] relates to CCRF-CEM.
In assay [4] the test system is DU-145.
Assay [5] has as its system HCT-116.
The subject of assay [6] is HOP-92.
For assay [7], the system named is KM12.
Assay [8] has as its system MDA-MB-435.
Assay [9] relates to MDA-N.
The test system of assay [10] is NCI-H23.
The test system of assay [11] is OVCAR-3.
The subject of assay [12] is OVCAR-8.
For assay [13], the system named is SF-268.
In assay [14] the test system is SF-295.
The test system of assay [15] is SK-OV-3.
Assay [16] deals with SR.
In assay [17] the test system is SW-620.
The test system of assay [18] is T47D.
Assay [19] concerns UACC-62.
The subject of assay [20] is OVCAR-4.

In the case of `COC(=O)CSSCc1ccc([N+](=O)[O-])cc1`, the GI50 was 25.5 µM (inactive) in assay [1]; 19.1 µM (inactive) in assay [2]; 5.6 µM (inactive) in [3]; 19.5 µM (inactive) in [4]; 12.2 µM (inactive) in assay [5]; 27.1 µM (inactive) in assay [6]. The GI50 in assay [7] was 15.1 µM (inactive); in assay [8] it was 13.9 µM (inactive); in [9] it was 14.7 µM (inactive); in assay [10] it was 32 µM (inactive); in assay [11] it was 18.5 µM (inactive); in assay [12], 28.6 µM (inactive). The GI50 in [13] is 21.8 µM (inactive); in [14], 19 µM (inactive); in [15] it was 20.8 µM (inactive); in assay [16] it was 12 µM (inactive); in assay [17] it was 12.2 µM (inactive); in [18] it was 24.1 µM (inactive). Also, in assay [19], the GI50 is 15.8 µM (inactive).
Take `O=S1(=O)OCCOS(=O)(=O)C1F`: the GI50 was > 100 µM (inactive) in assay [1]; 0.0293 µM (active) in assay [2]; > 100 µM (inactive) in [3]; > 100 µM (inactive) in assay [4]; > 100 µM (inactive) in assay [5]; > 100 µM (inactive) in [7]. In addition, the GI50 in assay [8], in assay [9], in assay [10], in assay [11], in assay [20] and in assay [12] was > 100 µM (inactive) each time. Also, the GI50 in assay [13], in [14], in assay [15], in assay [16], in [17] and in assay [18] was > 100 µM (inactive) throughout. Also, the GI50 in [19] was > 100 µM (inactive).
Take `Cc1nc2c(sc(=S)n2-c2ccccc2)c2nc3ncccc3n12`: the GI50 in [1], in assay [2], in [3], in assay [4], in assay [5] and in [6] was > 100 µM (inactive) throughout. In addition, the GI50 in assay [7], in assay [8], in assay [9], in assay [10], in assay [11] and in [12] was > 100 µM (inactive) throughout. The GI50 was 66.7 µM (inactive) in assay [13]; 77.4 µM (inactive) in [14]; 33 µM (inactive) in assay [15]; > 100 µM (inactive) in [16]; > 100 µM (inactive) in assay [17]; > 100 µM (inactive) in assay [18]. Further, the GI50 in [19] was > 100 µM (inactive).
As for `COC(=O)NC1C(C)OC(OC2C/C=C(/C)C3C=CC4C(OC5CC(OC6CC(OC7CC(O)C(O)C(C)O7)C(OC7CC(O)C(OC)C(C)O7)C(C)O6)C(O)C(C)O5)C(C)CC(C)C4C3(C)C(=O)C3=C(O)C4(CC(C)C(CO)=CC4/C=C\2C)OC3=O)CC1(C)[N+](=O)[O-]` (stereo not given), the GI50 in assay [1] is 5.04 µM (inactive); in [2], 20.8 µM (inactive); in assay [3], 3.29 µM (inactive); in [4] it was 6.73 µM (inactive); in [5] it was 1.59 µM (inactive); in [6], 6.24 µM (inactive). In addition, the GI50 in [7] was 6.7 µM (inactive); in assay [8], 9.64 µM (inactive); in assay [9], 14 µM (inactive); in assay [10], 12.9 µM (inactive); in assay [20], 17.5 µM (inactive); in assay [12] it was 8.57 µM (inactive). Moreover, the GI50 in [13] is 11.6 µM (inactive); in [14] it was 4.6 µM (inactive); in [16], 2.71 µM (inactive); in assay [17] it was 5.24 µM (inactive); in assay [18] it was 7.78 µM (inactive); in assay [19], 4.14 µM (inactive).
